Test results reported in the supplement of paper PMC10307832.

Key:
Assay in all cases: relative viability (nuclei count vs DMSO), 5 days (fraction); higher = more cells survive
[1] = compound: C1=CC=C(C(=C1)C2=CC=C(C=C2)C3=CSC4=C3C(=C(C(=O)N4)C#N)O)O + CS(=O)(=O)CCNCc1ccc(-c2ccc3ncnc(Nc4ccc(OCc5cccc(F)c5)c(Cl)c4)c3c2)o1 [Lapatinib] (partner 2 µM)
Summary of the method: (§1)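 After 5 days of treatment, lung cancer cells in 1536-well plates were fixed and stained in a single step (final 0.05% Triton X-100, 1% formaldehyde, 1 ug/ml Hoechst) and their nuclei counted on 4× images. Treatment had been applied by pin tool the day after seeding as one drug alone or as a fixed anchor-drug dose with five library-drug doses (not always all listed) in √10 steps. Relative viability is the nuclei count of treated wells divided by that of vehicle wells, and values are medians of duplicate plates.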

[2] = compound: C1=CC=C(C(=C1)C2=CC=C(C=C2)C3=CSC4=C3C(=C(C(=O)N4)C#N)O)O + NC(=O)Nc1cc(-c2cccc(F)c2)sc1C(=O)N[C@H]1CCCNC1 [AZD7762] (partner 0.2 µM)
Summary of the method: as §1

[3] = compound: O=C(CCCCCCNC(=O)c1cnc(N(c2ccccc2)c2ccccc2)nc1)NO [Ricolinostat] + CC(=O)Nc1cccc(-n2c(=O)n(C3CC3)c(=O)c3c(Nc4ccc(I)cc4F)n(C)c(=O)c(C)c32)c1 [Trametinib] (partner 0.02 µM)
Summary of the method: as §1

[4] = compound: O=C(CCCCCCNC(=O)c1cnc(N(c2ccccc2)c2ccccc2)nc1)NO [Ricolinostat] + O=C(c1cc(Cc2n[nH]c(=O)c3ccccc23)ccc1F)N1CCN(C(=O)C2CC2)CC1 [Olaparib] (partner 8 µM)
Summary of the method: as §1

Cell Line | relative viability ([1]; first compound 0.08 µM) | relative viability ([1]; first compound 0.253 µM) | relative viability ([1]; first compound 0.8 µM) | relative viability ([1]; first compound 2.53 µM) | relative viability ([1]; first compound 8 µM) | relative viability ([2]; first compound 0.08 µM) | relative viability ([2]; first compound 0.253 µM) | relative viability ([2]; first compound 0.8 µM) | relative viability ([2]; first compound 2.53 µM) | relative viability ([2]; first compound 8 µM) | relative viability ([3]; first compound 0.08 µM) | relative viability ([3]; first compound 0.253 µM) | relative viability ([3]; first compound 0.8 µM) | relative viability ([3]; first compound 2.53 µM) | relative viability ([4]; first compound 0.08 µM) | relative viability ([4]; first compound 0.253 µM) | relative viability ([4]; first compound 0.8 µM) | relative viability ([4]; first compound 2.53 µM)
EMC-BAC-2 | 0.76 | 1 | 0.917 | 0.894 | 0.812 | 1.05 | 1.21 | 1.11 | 0.981 | 0.939 | 0.809 | 0.895 | 0.819 | 0.74 | 0.52 | 0.442 | 0.393 | 0.347
EPLC-272H |  | 0.924 | 0.849 | 0.897 | 1.01 | 0.258 |  | 0.247 | 0.208 | 0.183 |  | 0.284 | 0.313 | 0.26 | 0.866 | 0.938 | 0.612 | 0.309
H3255 | 0.231 | 0.292 | 0.231 | 0.235 | 0.25 | 0.898 | 1.07 | 0.757 | 0.9 | 0.848 | 0.571 | 0.644 | 0.677 | 0.76 | 0.543 | 0.529 | 0.525 | 0.506
HARA |  | 1.03 | 0.821 | 0.762 | 0.738 | 0.286 | 0.361 | 0.345 | 0.284 | 0.304 | 0.704 | 0.804 | 0.529 | 0.644 | 0.855 | 0.889 | 0.29 | 0.482
HCC-15 | 0.702 | 0.918 | 0.897 | 0.962 | 0.783 | 1.4 | 1.38 | 1.46 | 1.32 | 0.93 | 0.352 | 0.397 | 0.379 | 0.333 | 0.669 | 0.57 | 0.64 | 0.59
HCC-44 | 0.863 | 1.07 | 0.928 | 1.02 | 0.993 | 1.13 | 1.11 | 1.01 | 1.01 | 1.02 | 1.11 | 1.02 | 1.02 | 1.04 | 1.04 | 0.922 | 1.06 | 1
HCC-78 | 0.575 | 0.935 | 0.899 | 0.781 | 0.809 | 0.682 | 0.744 | 0.638 | 0.502 | 0.551 |  | 0.782 | 0.768 | 0.601 |  | 0.788 | 0.735 | 0.448
HCC-366 | 1.24 | 0.948 | 1.24 | 1.01 | 1.01 |  | 0.342 | 0.259 | 0.281 | 0.273 | 0.372 | 0.32 | 0.314 | 0.342 | 0.272 | 0.309 | 0.277 | 0.212
HCC-827 | 0.185 | 0.201 | 0.197 | 0.184 | 0.18 | 0.233 | 0.192 | 0.199 | 0.231 | 0.176 | 0.49 | 0.527 | 0.581 | 0.584 | 0.553 | 0.634 | 0.593 | 0.617
